Measurements: patent publication EP0546475A1, “Biologically active pseurotin A and D, new metabolites from Aspergillus fumigatus, process for their preparation and their use as apomorphine antagonists” (HOECHST AKTIENGESELLSCHAFT, priority 1991, dated 1993)

Columns and labels:
[1] = test system: durch Apomorphin verursachten Kletterns; experiment: Inhibition of apomorphine-induced climbing in mice (apomorphine antagonism); type: in vivo, Mäusen; settings: test substance given 30 min (i.p.) or 60 min (p.o.) before apomorphine, dose of test substance not given
Description: Test auf biologische Aktivität von Pseurotin A und D: • Die Wirkung der Verbindungen der Formel I und 11 als Apomorphin Antagonisten wird an Mäusen getestet. Hierzu wird zunächst Apomorphin als 1 %ige Lösung (Verdünnungsmittel: Tylose, z. B. Methocel, Hoechst AG, Frankfurt, Deutschland)) einmalig […] injiziert. Die Dosis ist so gewählt, daß sie bei 95 % der Mäuse für ca. 30 Minuten eine anhaltende Klettertätigkeit auslöst (1,5 mg Apomorphin/kg Maus; subcutane Injektion). Tiere, die noch vor der Apomorphingabe eine konstante Klettertätigkeit aufweisen, werden nicht im Test berücksichtigt. Pseurotin A und/oder D wird 30 bzw. 60 Min. vor Apomorphin appliziert (i.p. bzw. p.o.). Es wird viermal abgelesen: unmittelbar vor sowie 10,20 und 30 Min. nach Apomorphin-Injektion. Dabei wird das Kletterverhalten pro Maus beurteilt: • Testkriterium ist, ob eine Hemmung des durch Apomorphin verursachten Kletterns eintritt.

[2] = Solubility in organic solvents; type: physicochemical; settings: in CH2C12, CHCl3, Essigsäureethylester, Aceton, Ethanol und Isopropanol; isolated as amorphous solid
Description: Die Pseurotine A und D wurden als amorpher Feststoff isoliert und sind z.B. löslich in CH2C12, CHCl3, Essigsäureethylester, Aceton, Ethanol und Isopropanol.

[3] = Stability in the solid state and in solution; type: physicochemical; settings: for Stabilität im festen Zustand: solid state; for Stabilität in Lösungen: solutions, pH range between 3 and 8, in particular 5 and 7
Description: Die Verbindungen der Formel 1 oder 11 ist im festen Zustand und in Lösungen im pH-Bereich zwischen 3 und 8, insbesondere 5 und 7, stabil und läßt sich damit in übliche galenische Zubereitungen einarbeiten.

[4] = 10 min after apomorphine (1,5 mg Apomorphin/kg Maus), seen in the majority (Mehrzahl) of treated mice
[5] = 20 min after apomorphine (1,5 mg Apomorphin/kg Maus)

SMILES	Kletterverhalten pro Maus (Hemmung des durch Apomorphin verursachten Kletterns) [1, 4]	Kletterverhalten pro Maus (Hemmung des durch Apomorphin verursachten Kletterns) [1, 5]	Löslichkeit [2]	Stabilität im festen Zustand [3]	Stabilität in Lösungen [3]
CC/C=C\[C@H](O)[C@H](O)C1=C(C)C(=O)[C@]2(O1)C(=O)N[C@@](OC)(C(=O)c1ccccc1)[C@@H]2O [Pseurotin A]	nur noch 1 oder 2 Pfoten an der Wand	nahezu alle Tiere deutliche Symptome in Form der Kletterhemmung (4 Pfoten am Boden)	löslich	stabil	stabil
CCC(O)C=C[C@H](O)C1=C(C)C(=O)[C@]2(O1)C(=O)N[C@@](OC)(C(=O)c1ccccc1)[C@@H]2O (stereo partly shown) [Pseurotin D]	nur noch 1 oder 2 Pfoten an der Wand	nahezu alle Tiere deutliche Symptome in Form der Kletterhemmung (4 Pfoten am Boden)	löslich	stabil	stabil
